#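 Cells were grown in 96-well plates and exposed to each compound for 48 hours at five concentrations; endpoints were interpolated linearly between bracketing concentrations, or set to the highest concentration if not reached. At the GI50, growth is halved. The concentration for full growth arrest is given as TGI.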
# Assays:
# Assay in all cases: NCI tumour cell line growth inhibition, 48 h
# HOP-18 NSCLC = system: HOP-18 NSCLC
# RXF-631 renal = system: RXF-631 renal
# SNB-78 CNS = system: SNB-78 CNS
# DMS 114 small cell lung = system: DMS 114 small cell lung
# DLD-1 colon = system: DLD-1 colon
# DMS 273 small cell lung = system: DMS 273 small cell lung
# LXFL 529 NSCLC = system: LXFL 529 NSCLC
# M19-MEL melanoma = system: M19-MEL melanoma
# XF 498 CNS = system: XF 498 CNS
SMILES,TGI (HOP-18 NSCLC),TGI (RXF-631 renal),TGI (SNB-78 CNS),TGI (DMS 114 small cell lung),TGI (DLD-1 colon),TGI (DMS 273 small cell lung),TGI (LXFL 529 NSCLC),TGI (M19-MEL melanoma),TGI (XF 498 CNS),GI50 (DLD-1 colon),GI50 (LXFL 529 NSCLC),GI50 (M19-MEL melanoma)
CC[P+]1(c2ccccc2)CCCCC1,> 100 µM,> 100 µM,> 100 µM,> 100 µM,> 100 µM,> 100 µM,> 100 µM,> 100 µM,,,,
FC(F)(F)c1nc(Br)[nH]c1C(F)(F)F,93.2 µM,> 100 µM,> 100 µM,> 100 µM,> 100 µM,> 100 µM,> 100 µM,> 100 µM,> 100 µM,,,
CNC(=O)NCCN1N=C(C)/C(=C\c2ccccc2)CC1=O,,> 100 µM,> 100 µM,,> 100 µM,> 100 µM,> 100 µM,> 100 µM,> 100 µM,,,
CCc1ccccc1NC(=O)C(=O)C(C#N)c1c(Cl)cccc1Cl (stereo unspecified),,> 100 µM,> 100 µM,,> 100 µM,> 100 µM,> 100 µM,> 100 µM,> 100 µM,,,
N#CC(C#N)=C1CCC2C(=C(C#N)C#N)CCC12 (stereo unspecified),,> 100 µM,> 100 µM,> 100 µM,> 100 µM,> 100 µM,> 100 µM,> 100 µM,> 100 µM,,,
O=c1[nH]c(=O)n(C2OC(CO)C(O)C2O)cc1F (stereo unspecified),> 100 µM,> 100 µM,60.1 µM,> 100 µM,> 100 µM,> 100 µM,> 100 µM,> 100 µM,> 100 µM,,,
Cc1ccc(NC(=O)CCC(=O)C2Cc3ccccc3C2=O)cc1C (stereo unspecified),> 100 µM,,> 100 µM,> 100 µM,> 100 µM,> 100 µM,> 100 µM,> 100 µM,> 100 µM,,,
CC(C)(C)OC1=C(OC(C)(C)C)C(O)(c2ccc(Cl)cc2)C1=O (stereo unspecified),> 100 µM,> 100 µM,> 100 µM,> 100 µM,> 100 µM,> 100 µM,> 100 µM,> 100 µM,,,,
O=C1CCc2ccc(O)c(c2)Oc2ccc(cc2)[C@@H]2O[C@@H]2CO1,80.7 µM,,,67 µM,> 100 µM,,> 100 µM,> 100 µM,30.6 µM,,,
O=C(O)CCSC(=O)Nc1ccccc1,,,> 100 µM,,> 100 µM,> 100 µM,> 100 µM,,,,,
CN(C)CCNC(=O)c1cccc2c1nc(-c1ccncc1)c1ccccc12,51.1 µM,,23.2 µM,14.2 µM,14.2 µM,12.3 µM,,11.9 µM,,,,
CCOC(=O)CCn1cnc(N)n1,> 100 µM,> 100 µM,> 100 µM,> 100 µM,> 100 µM,> 100 µM,> 100 µM,> 100 µM,> 100 µM,,,
C=C1C(C(=O)O)C1C(=O)O (stereo unspecified),> 100 µM,,> 100 µM,> 100 µM,> 100 µM,> 100 µM,,> 100 µM,> 100 µM,,,
CSc1cc(C(C)(C)C)ccc1C(O)c1ccc(C(C)(C)C)cc1SC,34 µM,,40.3 µM,22.5 µM,21.7 µM,26.9 µM,32.5 µM,23.5 µM,23.6 µM,,,
CC(=O)[CH-]C(=O)c1ccccc1.CC(=O)[CH-]C(=O)c1ccccc1.CC(=O)[CH-]C(=O)c1ccccc1.[Br-].[Zr+4],,,,,> 100 µM,,> 100 µM,> 100 µM,,28.1 µM,70.7 µM,85.8 µM
C=CCC1C(=O)CC2(C)C(CC=C)C(=O)CC12C (stereo unspecified),> 100 µM,> 100 µM,,,> 100 µM,> 100 µM,> 100 µM,> 100 µM,> 100 µM,,,
O=C(OCc1ccccc1)n1cccc1,> 100 µM,> 100 µM,> 100 µM,> 100 µM,> 100 µM,> 100 µM,> 100 µM,> 100 µM,> 100 µM,,,
CCc1cccc(NC(=O)c2cc(/C=C/c3ccccc3)[nH]c(=S)n2)c1,> 100 µM,,> 100 µM,> 100 µM,,> 100 µM,> 100 µM,> 100 µM,,,,
N#CC1=C(c2ccccc2)OC2(N)OC(c3ccccc3)=C(C#N)C12C#N (stereo unspecified),75.1 µM,> 100 µM,> 100 µM,> 100 µM,> 100 µM,> 100 µM,> 100 µM,> 100 µM,> 100 µM,,,

# — PubChem BioAssay (NCI)
